“Also recorded” adds a separate entry of the source. Marks after values point to notes of the source that are not given here.
Legend:
[1] = molecular target: human ether-a-go-go potassium channel (hERG) (Homo sapiens, UniProt Q12809); experiment: [3H]astemizole displacement, hERG expressed in HEK293 cells; format: binding
[2] = tested on: α1-adrenergic receptor; experiment: [3H]prazosin displacement from brain membranes; format: binding, Wistar rat; conditions: for α1-Adrenergic (% displacement at 3 μM): 3 μM test compound, 0.25 nM [3H]prazosin, duplicate; for α1-adrenergic binding: displacement of ligand at 3 μM
[3] = molecular target: GluR6 (Rattus norvegicus, UniProt P42260); format: cell-based
GluR6, sequence (P42260 32-908): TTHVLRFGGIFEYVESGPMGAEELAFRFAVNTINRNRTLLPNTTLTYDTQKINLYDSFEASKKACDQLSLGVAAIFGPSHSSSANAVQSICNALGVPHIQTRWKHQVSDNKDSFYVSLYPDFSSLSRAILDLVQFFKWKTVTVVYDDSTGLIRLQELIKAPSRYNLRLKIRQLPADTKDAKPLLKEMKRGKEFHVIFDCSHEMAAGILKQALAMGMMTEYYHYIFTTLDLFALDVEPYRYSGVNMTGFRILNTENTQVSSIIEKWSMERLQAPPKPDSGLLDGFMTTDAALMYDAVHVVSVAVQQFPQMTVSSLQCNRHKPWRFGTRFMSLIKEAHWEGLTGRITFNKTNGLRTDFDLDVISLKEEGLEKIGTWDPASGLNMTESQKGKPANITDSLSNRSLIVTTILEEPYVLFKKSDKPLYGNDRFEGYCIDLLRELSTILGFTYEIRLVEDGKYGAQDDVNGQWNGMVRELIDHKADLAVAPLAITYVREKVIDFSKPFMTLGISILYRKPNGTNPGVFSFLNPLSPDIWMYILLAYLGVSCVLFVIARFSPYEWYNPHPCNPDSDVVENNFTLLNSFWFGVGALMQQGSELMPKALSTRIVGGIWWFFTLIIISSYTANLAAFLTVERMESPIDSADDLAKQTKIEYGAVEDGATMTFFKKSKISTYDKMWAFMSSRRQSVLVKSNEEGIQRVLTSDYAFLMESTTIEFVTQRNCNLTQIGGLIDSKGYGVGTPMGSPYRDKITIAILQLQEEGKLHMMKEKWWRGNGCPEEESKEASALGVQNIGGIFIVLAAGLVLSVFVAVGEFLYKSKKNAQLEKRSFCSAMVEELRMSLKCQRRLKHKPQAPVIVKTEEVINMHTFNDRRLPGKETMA

[4] = molecular target: GluR1 (Rattus norvegicus, UniProt P19490); experiment: Two electrode voltage clamp, homomeric GluR1 AMPA receptors in Xenopus oocytes; format: cell-based
GluR1, sequence (P19490 19-907): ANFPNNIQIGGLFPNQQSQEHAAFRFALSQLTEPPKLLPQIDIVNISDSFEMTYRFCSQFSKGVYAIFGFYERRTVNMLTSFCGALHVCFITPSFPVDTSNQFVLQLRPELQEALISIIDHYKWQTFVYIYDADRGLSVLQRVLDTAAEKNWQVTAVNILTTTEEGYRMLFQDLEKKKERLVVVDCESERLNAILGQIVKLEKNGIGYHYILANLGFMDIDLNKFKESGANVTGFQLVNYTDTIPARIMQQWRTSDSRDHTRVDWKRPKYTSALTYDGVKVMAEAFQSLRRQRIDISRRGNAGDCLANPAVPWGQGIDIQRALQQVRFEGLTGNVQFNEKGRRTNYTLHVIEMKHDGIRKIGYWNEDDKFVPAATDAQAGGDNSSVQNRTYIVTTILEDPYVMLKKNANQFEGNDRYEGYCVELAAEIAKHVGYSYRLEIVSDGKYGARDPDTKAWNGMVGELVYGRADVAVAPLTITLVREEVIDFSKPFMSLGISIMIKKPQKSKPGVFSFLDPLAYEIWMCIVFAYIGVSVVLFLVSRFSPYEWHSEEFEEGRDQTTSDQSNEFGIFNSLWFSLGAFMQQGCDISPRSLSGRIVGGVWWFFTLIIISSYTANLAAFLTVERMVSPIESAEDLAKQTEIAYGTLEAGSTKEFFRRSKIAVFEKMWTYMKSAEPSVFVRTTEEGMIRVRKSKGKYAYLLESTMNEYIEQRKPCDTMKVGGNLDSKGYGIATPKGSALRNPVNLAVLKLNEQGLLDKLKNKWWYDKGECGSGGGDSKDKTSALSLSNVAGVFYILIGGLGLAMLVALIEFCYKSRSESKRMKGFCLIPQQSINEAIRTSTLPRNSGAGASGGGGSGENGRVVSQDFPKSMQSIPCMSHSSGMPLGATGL

[5] = molecular target: human NR1/NR2B (Homo sapiens, UniProt Q05586+Q13224); experiment: Two electrode voltage clamp concentration-effect curve, human NR1/NR2B; format: cell-based
human NR1/NR2B, sequence (Q13224 27-1484, other chains not shown): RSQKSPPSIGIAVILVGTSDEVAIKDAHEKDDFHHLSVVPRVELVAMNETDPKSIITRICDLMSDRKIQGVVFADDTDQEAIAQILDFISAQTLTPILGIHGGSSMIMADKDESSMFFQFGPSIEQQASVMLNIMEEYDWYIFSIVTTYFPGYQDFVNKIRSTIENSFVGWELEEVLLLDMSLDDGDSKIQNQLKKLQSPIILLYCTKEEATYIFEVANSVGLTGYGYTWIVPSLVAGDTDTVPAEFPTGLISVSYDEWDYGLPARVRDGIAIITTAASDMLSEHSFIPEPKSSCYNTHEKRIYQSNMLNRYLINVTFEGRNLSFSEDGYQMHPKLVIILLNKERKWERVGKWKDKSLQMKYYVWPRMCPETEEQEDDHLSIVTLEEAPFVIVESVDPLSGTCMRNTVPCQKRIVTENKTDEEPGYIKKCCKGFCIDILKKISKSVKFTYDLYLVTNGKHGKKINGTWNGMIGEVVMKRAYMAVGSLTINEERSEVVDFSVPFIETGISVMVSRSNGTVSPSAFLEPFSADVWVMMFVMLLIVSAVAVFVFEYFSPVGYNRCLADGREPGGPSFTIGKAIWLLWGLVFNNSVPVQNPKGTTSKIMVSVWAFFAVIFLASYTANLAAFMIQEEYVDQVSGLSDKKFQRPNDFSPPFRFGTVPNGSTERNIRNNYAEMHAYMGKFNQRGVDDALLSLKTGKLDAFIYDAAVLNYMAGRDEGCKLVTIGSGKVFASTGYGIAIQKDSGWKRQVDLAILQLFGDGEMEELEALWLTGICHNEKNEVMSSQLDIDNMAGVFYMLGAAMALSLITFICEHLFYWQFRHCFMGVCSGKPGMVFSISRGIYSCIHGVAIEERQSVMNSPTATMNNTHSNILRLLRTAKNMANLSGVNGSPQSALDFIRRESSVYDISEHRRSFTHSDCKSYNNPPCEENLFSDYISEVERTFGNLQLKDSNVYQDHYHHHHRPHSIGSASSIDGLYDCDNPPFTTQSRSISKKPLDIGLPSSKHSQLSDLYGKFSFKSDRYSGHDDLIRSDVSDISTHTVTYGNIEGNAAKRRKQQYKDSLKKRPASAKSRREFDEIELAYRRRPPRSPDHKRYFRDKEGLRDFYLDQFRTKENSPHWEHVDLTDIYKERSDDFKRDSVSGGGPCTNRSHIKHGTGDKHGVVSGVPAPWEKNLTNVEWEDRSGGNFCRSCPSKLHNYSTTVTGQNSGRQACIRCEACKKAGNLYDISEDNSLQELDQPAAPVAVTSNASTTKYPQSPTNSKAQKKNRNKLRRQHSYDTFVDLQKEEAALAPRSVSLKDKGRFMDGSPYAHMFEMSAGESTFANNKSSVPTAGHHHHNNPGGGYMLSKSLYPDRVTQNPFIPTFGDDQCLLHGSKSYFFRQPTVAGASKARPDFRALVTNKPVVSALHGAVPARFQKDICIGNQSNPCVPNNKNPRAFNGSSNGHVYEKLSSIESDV

[6] = molecular target: rat NR1/NR2B (Rattus norvegicus, UniProt P35439+Q00960); experiment: Two electrode voltage clamp, recombinant NR1/NR2B in Xenopus oocytes; format: cell-based; conditions: n = 5
[7] = molecular target: NR1/NR2B(ΔATD) (Rattus norvegicus, UniProt Q00960); experiment: Two electrode voltage clamp, amino terminal domain deletion mutant NR1/NR2B; format: cell-based; conditions: maximal glutamate and glycine
[8] = tested on: voltage-gated Na+ or K+ currents; format: cell-based, rat; conditions: 3 μM; cultured cortical neurons; Na+ at −10 mV, K+ at +50 mV
[9] = tested on: MDR1; experiment: MDR1-MDCK permeability; format: in vitro ADME; conditions: dog, MDCK-MDR1, pH 7.4

human ether-a-go-go potassium channel (hERG), sequence (Q12809 whole entry): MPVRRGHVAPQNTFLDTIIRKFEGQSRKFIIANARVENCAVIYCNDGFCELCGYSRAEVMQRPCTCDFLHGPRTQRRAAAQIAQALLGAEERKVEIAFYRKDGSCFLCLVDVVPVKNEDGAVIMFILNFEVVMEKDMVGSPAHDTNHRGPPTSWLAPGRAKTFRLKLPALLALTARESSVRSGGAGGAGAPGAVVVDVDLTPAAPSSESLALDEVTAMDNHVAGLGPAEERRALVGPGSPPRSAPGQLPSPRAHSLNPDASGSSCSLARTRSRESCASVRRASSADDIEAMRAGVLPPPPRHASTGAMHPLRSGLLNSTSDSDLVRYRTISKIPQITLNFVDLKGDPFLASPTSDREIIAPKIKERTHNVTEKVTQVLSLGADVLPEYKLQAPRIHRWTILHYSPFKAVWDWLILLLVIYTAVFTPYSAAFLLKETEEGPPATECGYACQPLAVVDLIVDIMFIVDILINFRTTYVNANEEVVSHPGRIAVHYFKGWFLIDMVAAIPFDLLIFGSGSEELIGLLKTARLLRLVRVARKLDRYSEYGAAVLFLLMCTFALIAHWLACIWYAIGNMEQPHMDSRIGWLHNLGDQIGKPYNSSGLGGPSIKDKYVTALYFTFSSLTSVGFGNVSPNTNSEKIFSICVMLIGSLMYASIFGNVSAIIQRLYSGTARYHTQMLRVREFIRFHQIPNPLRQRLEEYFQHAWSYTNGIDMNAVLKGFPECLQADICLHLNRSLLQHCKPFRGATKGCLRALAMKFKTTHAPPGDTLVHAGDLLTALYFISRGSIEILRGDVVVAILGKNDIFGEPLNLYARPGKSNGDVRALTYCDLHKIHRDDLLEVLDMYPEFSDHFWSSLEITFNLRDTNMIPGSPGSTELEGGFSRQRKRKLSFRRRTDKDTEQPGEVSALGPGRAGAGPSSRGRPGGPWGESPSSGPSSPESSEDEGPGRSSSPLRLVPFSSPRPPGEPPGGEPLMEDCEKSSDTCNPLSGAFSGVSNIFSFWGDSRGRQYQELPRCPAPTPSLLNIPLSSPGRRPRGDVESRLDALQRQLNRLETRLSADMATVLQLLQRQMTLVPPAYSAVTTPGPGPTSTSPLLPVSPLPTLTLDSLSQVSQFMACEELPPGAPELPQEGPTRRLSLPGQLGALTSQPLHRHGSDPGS

CS(=O)(=O)Nc1ccc(OCC(=O)NCCCc2ccc(Cl)c(Cl)c2)cc1 [Compound 54, N-(3-(3,4-Dichlorophenyl)propyl)-2-(4-(methylsulfonamido)phenoxy)acetamide]
hERG binding [1]: negligible
α1-Adrenergic (% displacement at 3 μM) [2]: <1%
α1-adrenergic binding [2]: negligible

CS(=O)(=O)Nc1ccc(CCC(=O)NNC(=O)Cc2ccc(Cl)c(Cl)c2)cc1 [Compound 16, N’-(2-(3,4-Dichlorophenyl)acetyl)-3-(4-(methylsulfonamido)phenyl)propanehydrazide]
remaining activity at 3 µM ([3]; read-out: GluR6 % response): 97 ± 1%
remaining activity at 3 µM ([4]; read-out: GluR1 % response): 101 ± 0.5%
IC50 [5]: 5.75 µM

CS(=O)(=O)Nc1ccc(CCC(=O)NNC(=S)Nc2ccc(Cl)c(Cl)c2)cc1 [Compound 14, 4-(3,4-Dichlorophenyl)-1-(3-(4-(methylsulfonamido)-phenyl)propanoyl)thiosemicarbazide]
α1-Adrenergic (% displacement at 3 μM) [2]: <1%

CS(=O)(=O)Nc1ccc(OCCNCC(=O)Nc2ccc(Cl)c(Cl)c2)cc1 [Compound 67, N-(3,4-Dichlorophenyl)-2-(2-(4-(methylsulfonamido)-phenoxy)ethylamino) acetamide]
IC50 [5]: ~1 µM

CS(=O)(=O)Nc1ccc(CCC(=O)NCCNc2ccc(Cl)c(Cl)c2)cc1 [Compound 49, N-(2-(3,4-Dichlorophenylamino)ethyl)-3-(4-(methylsulfonamido)phenyl)propanamide]
α1-adrenergic binding [2]: neither amide 49 or 52 showed any α1-adrenergic binding

CS(=O)(=O)Nc1ccc(OCC(=O)NCCNc2ccc(Cl)c(Cl)c2)cc1 [Compound 52, N-(2-(3,4-Dichlorophenylamino)ethyl)-2-(4-(meth-ylsulfonamido)phenoxy)acetamide]
effect on recombinant kainate receptors (GluR6) ([3]; 3 μM): no detectable effects
Ki [1]: ~12 µM
hERG binding [1]: minimal
voltage dependence of inhibition [6]: voltage-independent
effect on recombinant AMPA (GluR1) receptors ([4]; 3 μM): no detectable effects
effect on current response of NR1/NR2B(ΔATD) [7]: virtually no effect
α1-Adrenergic (% displacement at 3 μM) [2]: <1%
α1-adrenergic binding [2]: neither amide 49 or 52 showed any α1-adrenergic binding; also recorded: minimal
effect on voltage-gated Na+ or K+ currents [8]: no detectable effects

CS(=O)(=O)Nc1ccc(CCCN2CCN(c3ccc(Cl)c(Cl)c3)C2=O)cc1 [Compound 70, N-(4-(3-(3-(3,4-Dichlorophenyl)-2-oxoimidazolidin-1-yl)propyl)phenyl)methanesulfonamide]
α1-Adrenergic (% displacement at 3 μM) [2]: <1%
α1-adrenergic binding [2]: negligible

CS(=O)(=O)Nc1ccc(CCC(=O)NC/C=C/c2ccc(Cl)c(Cl)c2)cc1 [Compound 50, N-(3,4-Dichlorocinnamyl)-3-(4-(methylsulfonamido)-phenyl)propanamide]
hERG (% displacement) at 3 μM ([1]; 3 μM test compound, 1.5 nM [3H]-astemizole): 47 ^* %
α1-adrenergic binding [2]: without actions

CS(=O)(=O)Nc1ccc(OCCN2CCN(c3ccc(Cl)c(Cl)c3)C2=O)cc1 [Compound 71, N-(4-(2-(3-(3,4-Dichlorophenyl)-2-oxoimidazolidin-1-yl)ethoxy)phenyl)methanesulfonamide]
α1-adrenergic binding [2]: negligible

CS(=O)(=O)Nc1ccc(OCC(=O)N2CCN(c3ccc(Cl)c(Cl)c3)CC2)cc1 [Compound 57, N-(4-(2-(4-(3,4-Dichlorophenyl)piperazin-1-yl)-2-oxoethoxy)phenyl)methanesulfonamide]
Papp A→B at 2 h, 5 μM [9]: 4.8 ×10⁻⁶ cm/s

Reference: publication PMC2891242 (Bioorganic & medicinal chemistry, 2009)
